≈ marks a conversion by molar mass, not a printed value.
Assays:
E. coli pol IIIE = biological target: T1, E. coli pol IIIE (Escherichia coli, UniProt P10443); assay: DNA polymerase assay, E. coli pol IIIE; format: biochemical; conditions: 80 μg/mL (190-260 μM) final concentration; all four dNTPs
T1 construct: purchased Enzyco, Denver, Colo
Procedure, shortened: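 Incorporation of 3H label into activated calf thymus DNA (0.4 mg/mL) from 10 μM of all four dNTPs, 10 min at 30 °C in pH 7.5 Tris/magnesium acetate, compounds in 1% DMSO. Reactions started with 0.025–0.06 units recombinant polymerase, stopped with cold TCA; IC50 and percent inhibition relative to DMSO control.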

[1] = system: Enterococcus faecalis strain 29212; assay: Inhibition of bacterial growth (MIC), Efcl; format: cell-based; conditions: 16 to 18 hours, 37° C., read-out: Minimum Inhibitory Concentration for Bacterial Growth, Efcl
Procedure, shortened: (§1)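 Compounds are diluted two-fold in DMSO over 11 concentrations, commonly 80 down to 0.078 μg/mL, then combined with bacteria at 1×10^5 CFU/mL in LB or BHI (final DMSO 1%).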

test strains of bacteria = assay: Inhibition of bacterial growth, whole panel of test strains; format: cell-based
Experimental: Each compound was assayed against a panel of a strain of Bacillus subtilis, of strains of antibiotic-resistant and sensitive Enterococcus and Staphylococcus species, and of a strain of the Gram-negative bacterium Escherichia coli. Compounds were dissolved in DMSO at 100× the desired highest concentration and added to one well of a 96-well microassay plate. Two-fold serial drug dilutions were made across the plate in DMSO to yield 11 concentrations (usually 80-0.078 μg/mL) plus an untreated control. Drugs were then transferred to fresh plates using 1.5 μL per well. Log phase cultures were diluted to yield a concentration of 1×10^5 colony forming units/mL in either LB or BHI medium and transferred to the plates containing drug for a final volume of 150 μL. Each well, including the DMSO controls, contained a final concentration of 1% DMSO. Plates were incubated with shaking at 37° C. for 16 to 18 hours. Cell growth was determined by measuring optical density (570 nm, 1 cm path length) in a microplate reader. MIC (minimum inhibitory concentration) is equivalent to the lowest concentration at which growth is not observed. The bacterial strains and MIC determinations have been well characterized and are described elsewhere (Tarantino et al., Antimicrob. Agents Chemother., 43: 1982-1987 (1999); Daly et al., Antimicrob. Agents Chemother., 44: 2217-2221 (2000)).

[2] = system: Bacillus subtilis strain BD54; assay: Inhibition of bacterial growth (MIC), Bs; format: cell-based; conditions: 16 to 18 hours, 37° C., read-out: Minimum Inhibitory Concentration for Bacterial Growth, Bs
Procedure, shortened: as §1

B. subtilis pol IIIE [3] = biological target: T2, B. subtilis pol IIIE (Bacillus subtilis, UniProt O34623); assay: DNA polymerase assay, B. subtilis pol IIIE; format: biochemical
T2 construct: made in house
T2 sequence (O34623 whole entry): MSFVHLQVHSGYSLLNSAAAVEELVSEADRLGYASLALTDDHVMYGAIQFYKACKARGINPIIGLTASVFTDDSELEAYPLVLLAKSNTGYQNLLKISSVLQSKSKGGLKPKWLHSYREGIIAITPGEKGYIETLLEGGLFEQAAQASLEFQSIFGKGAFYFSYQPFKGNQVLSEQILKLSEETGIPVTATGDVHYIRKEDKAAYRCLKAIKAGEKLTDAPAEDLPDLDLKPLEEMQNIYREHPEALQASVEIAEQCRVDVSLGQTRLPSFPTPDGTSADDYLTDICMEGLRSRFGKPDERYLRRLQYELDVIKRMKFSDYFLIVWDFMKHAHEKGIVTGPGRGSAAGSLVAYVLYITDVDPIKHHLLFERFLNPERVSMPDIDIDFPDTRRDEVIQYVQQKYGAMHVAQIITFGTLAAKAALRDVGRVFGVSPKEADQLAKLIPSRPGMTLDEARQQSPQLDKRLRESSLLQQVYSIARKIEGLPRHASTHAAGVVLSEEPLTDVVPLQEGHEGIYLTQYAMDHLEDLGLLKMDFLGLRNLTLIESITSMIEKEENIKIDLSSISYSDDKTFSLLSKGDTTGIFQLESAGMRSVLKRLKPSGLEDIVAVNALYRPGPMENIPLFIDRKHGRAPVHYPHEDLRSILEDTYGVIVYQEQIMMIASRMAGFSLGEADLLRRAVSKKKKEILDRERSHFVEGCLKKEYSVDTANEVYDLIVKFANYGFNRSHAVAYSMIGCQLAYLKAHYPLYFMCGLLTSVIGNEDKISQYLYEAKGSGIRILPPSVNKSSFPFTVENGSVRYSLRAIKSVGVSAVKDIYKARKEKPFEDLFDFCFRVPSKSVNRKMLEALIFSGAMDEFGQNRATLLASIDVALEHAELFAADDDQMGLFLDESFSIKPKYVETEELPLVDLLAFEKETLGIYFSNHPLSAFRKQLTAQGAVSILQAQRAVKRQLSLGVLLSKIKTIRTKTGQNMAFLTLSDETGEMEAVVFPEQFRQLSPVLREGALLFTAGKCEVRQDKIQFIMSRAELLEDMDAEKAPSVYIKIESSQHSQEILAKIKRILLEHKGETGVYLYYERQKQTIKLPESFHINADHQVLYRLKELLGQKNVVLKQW

B. subtilis pol IIIC = biological target: T3, B. subtilis pol IIIC (Bacillus subtilis, UniProt P13267); assay: Classical enzyme kinetic analyses (Lineweaver-Burk) with pol IIIC; format: biochemical; conditions: variable substrate dGTP; Compound 17 at 0, 20, 60 μM; HB-EMAU at 0, 1.6, 4.8 μM
T3 construct: made in house
T3 sequence (P13267 whole entry): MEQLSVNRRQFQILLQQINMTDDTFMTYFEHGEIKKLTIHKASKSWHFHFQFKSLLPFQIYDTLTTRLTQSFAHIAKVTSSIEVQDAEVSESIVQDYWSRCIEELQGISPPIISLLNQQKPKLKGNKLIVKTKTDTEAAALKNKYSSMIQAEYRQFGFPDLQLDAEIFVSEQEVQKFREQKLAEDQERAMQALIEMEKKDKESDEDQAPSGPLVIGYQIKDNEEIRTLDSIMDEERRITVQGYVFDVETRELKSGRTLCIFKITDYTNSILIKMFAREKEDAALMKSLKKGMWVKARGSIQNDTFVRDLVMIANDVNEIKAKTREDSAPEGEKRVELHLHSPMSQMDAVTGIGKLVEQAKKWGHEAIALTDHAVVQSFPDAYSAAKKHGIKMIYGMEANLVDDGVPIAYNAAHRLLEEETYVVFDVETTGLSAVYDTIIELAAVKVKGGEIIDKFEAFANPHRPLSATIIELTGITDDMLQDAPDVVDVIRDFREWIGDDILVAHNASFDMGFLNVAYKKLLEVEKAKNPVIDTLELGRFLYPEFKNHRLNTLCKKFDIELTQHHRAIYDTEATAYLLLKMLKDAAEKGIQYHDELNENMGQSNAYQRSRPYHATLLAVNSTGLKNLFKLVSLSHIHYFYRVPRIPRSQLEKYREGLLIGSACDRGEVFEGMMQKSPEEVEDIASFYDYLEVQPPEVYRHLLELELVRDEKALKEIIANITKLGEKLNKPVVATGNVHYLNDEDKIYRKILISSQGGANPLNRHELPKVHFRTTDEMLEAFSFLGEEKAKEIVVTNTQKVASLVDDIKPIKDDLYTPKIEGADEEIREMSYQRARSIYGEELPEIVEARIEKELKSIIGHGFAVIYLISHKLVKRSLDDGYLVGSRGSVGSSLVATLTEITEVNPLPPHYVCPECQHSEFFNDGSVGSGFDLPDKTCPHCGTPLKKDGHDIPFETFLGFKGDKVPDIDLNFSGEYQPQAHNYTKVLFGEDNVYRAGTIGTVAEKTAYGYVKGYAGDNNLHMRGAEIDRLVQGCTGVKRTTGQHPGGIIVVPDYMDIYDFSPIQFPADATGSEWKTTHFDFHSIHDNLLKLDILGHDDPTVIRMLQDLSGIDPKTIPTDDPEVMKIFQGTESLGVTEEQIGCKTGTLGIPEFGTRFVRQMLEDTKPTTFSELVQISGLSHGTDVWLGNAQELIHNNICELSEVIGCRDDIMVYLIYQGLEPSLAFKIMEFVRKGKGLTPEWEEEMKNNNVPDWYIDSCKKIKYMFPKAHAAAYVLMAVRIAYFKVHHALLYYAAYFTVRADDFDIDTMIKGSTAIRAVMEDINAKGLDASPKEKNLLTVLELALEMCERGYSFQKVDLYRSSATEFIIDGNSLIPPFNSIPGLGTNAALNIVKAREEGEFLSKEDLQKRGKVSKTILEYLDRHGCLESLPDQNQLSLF
Experimental: The variable substrate in the experiments for FIGS. 1A and 1B was dGTP. See text for details.
Classical enzyme kinetic analyses were performed with Compound 17 and pol IIIC in which reaction velocity was measured as a function of each substrate (dGTP) concentration at several inhibitor concentrations (0, 20, and 60 μM). The results are graphed in a double reciprocal plot by the method of Lineweaver and Burk in FIG. 1A and show the effect of varying dGTP.
Compounds of the anilinouracil (AU) family, classical DNA polymerase inhibitors, inhibit pol IIIC strictly by “competitive” inhibition. An example is shown in the double reciprocal plot in FIG. 1B for the compound N3-hydroxybutyl 6-(3′-ethyl-4′-methylanilino) uracil (HB-EMAU), tested at 0, 1.6, and 4.8 μM. Such AU compounds compete with the dGTP substrate for binding to the enzyme (Clements et al., J. Biol. Chem. 250, 522-526 (1975)). “Noncompetive” inhibitors are exemplified by the class of HIV reverse transcriptase inhibitors, 4,5,6,7-tetrahydro-5-methylimidazo[4,5,1-jk][1,4]benzodiazepin-2(1H)-one (TIBO), i.e., TIBO compounds bind a site adjacent to the active site (Spence et al., Science 267, 988-993 (1995)). In contrast, the data in FIG. 1A clearly indicate that Compound 17, a pyrazole carboxylic acid hydrazide, inhibits pol IIIC by an “uncompetitive” mechanism.

[4] = system: E. faecium clinical isolate; assay: Inhibition of bacterial growth (MIC), Efcm; format: cell-based; conditions: Enterococcus faecium, 16 to 18 hours, 37° C., read-out: Minimum Inhibitory Concentration for Bacterial Growth, Efcm
Procedure, shortened: as §1

[5] = system: methicillin-resistant S. aureus strain 1094; assay: Inhibition of bacterial growth (MIC), MRSA; format: cell-based, Staphylococcus aureus; conditions: Staphylococcus aureus, MRSA, 16 to 18 hours, 37° C., read-out: Minimum Inhibitory Concentration for Bacterial Growth, MRSA
Procedure, shortened: as §1

S. aureus Smith strain = assay: Inhibition of bacterial growth (MIC), Sm; format: cell-based, Staphylococcus aureus; conditions: Staphylococcus aureus, 16 to 18 hours, 37° C., read-out: Minimum Inhibitory Concentration for Bacterial Growth, Sm
Procedure, shortened: as §1

[6] = system: vancomycin-resistant Enterococcus strain B42762; assay: Inhibition of bacterial growth (MIC), VRE; format: cell-based; conditions: VRE, 16 to 18 hours, 37° C., read-out: Minimum Inhibitory Concentration for Bacterial Growth, VRE
Procedure, shortened: as §1

B. subtilis pol IIIE [7] = biological target: T2, B. subtilis pol IIIE; assay: DNA polymerase assay, B. subtilis pol IIIE; format: biochemical; remark: listed apart in the source

T1 sequence (P10443 whole entry): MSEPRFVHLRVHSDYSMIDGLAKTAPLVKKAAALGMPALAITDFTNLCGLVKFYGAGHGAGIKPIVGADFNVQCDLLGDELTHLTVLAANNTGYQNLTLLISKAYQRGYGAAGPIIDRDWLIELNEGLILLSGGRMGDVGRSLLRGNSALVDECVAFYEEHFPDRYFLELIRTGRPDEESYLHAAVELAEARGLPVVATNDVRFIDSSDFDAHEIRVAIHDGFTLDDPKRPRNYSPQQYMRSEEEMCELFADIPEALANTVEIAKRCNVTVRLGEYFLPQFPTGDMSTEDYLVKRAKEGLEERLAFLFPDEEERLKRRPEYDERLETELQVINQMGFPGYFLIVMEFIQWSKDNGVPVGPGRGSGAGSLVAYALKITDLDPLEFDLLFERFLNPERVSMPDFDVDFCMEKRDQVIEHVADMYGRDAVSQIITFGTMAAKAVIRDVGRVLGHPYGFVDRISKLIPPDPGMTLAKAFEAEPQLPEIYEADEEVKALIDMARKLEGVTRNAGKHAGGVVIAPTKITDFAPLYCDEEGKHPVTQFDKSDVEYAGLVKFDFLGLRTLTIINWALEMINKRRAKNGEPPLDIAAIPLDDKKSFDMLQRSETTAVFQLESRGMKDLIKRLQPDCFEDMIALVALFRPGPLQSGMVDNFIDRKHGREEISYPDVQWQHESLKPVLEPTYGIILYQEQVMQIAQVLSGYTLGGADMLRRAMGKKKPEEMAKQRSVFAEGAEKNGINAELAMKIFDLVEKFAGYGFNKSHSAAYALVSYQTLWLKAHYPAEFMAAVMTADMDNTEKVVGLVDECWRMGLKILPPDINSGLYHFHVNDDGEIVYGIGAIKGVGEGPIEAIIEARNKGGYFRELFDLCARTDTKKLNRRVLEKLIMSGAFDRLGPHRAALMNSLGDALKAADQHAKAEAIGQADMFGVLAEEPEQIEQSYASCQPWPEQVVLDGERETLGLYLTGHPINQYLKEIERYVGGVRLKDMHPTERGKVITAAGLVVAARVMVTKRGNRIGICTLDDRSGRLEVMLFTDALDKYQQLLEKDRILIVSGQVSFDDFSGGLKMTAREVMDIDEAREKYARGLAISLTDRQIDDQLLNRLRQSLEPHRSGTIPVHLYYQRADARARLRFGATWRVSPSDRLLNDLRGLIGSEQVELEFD

Question: For `COc1ccc(-c2cc(C(=O)NN=Cc3cc(OC)c(OC)c(OC)c3)[nH]n2)cc1` [Compound 17], which “Percent Enzymatic Inhibition E. coli pol IIIE” value (E. coli pol IIIE) is on record?
Answer: Inactive

Question: And the MIC [1]?
Answer: 20 µg/mL (≈ 48.7 µM)

Question: What about the “Inhibition of bacterial growth, result in words (rank of MIC values)” value (test strains of bacteria) of the same compound?
Answer: lowest MIC values

Question: What about the MIC [2] of the same compound?
Answer: 0.625 µg/mL (≈ 1.52 µM)

Question: What about the IC50 (B. subtilis pol IIIE [3]; B. subtilis Pol IIIE IC50, −dATP, in the absence of dATP) of the same compound?
Answer: > 780 µM

Question: What about the IC50 (B. subtilis pol IIIE [3]; B. subtilis Pol IIIE IC50, −dCTP, in the absence of dCTP) of the same compound?
Answer: > 780 µM

Question: And the IC50 (B. subtilis pol IIIE [3]; B. subtilis Pol IIIE IC50, −dGTP, in the absence of dGTP)?
Answer: > 780 µM

Question: And the “Mechanism of inhibition of pol IIIC (double reciprocal plot)” value (B. subtilis pol IIIC)?
Answer: uncompetitive inhibition mechanism

Question: And the MIC [4]?
Answer: 5 µg/mL (≈ 12.2 µM)

Question: What about the MIC [5] of the same compound?
Answer: 2.5 µg/mL (≈ 6.09 µM)

Question: And the MIC (S. aureus Smith strain)?
Answer: 2.5 µg/mL (≈ 6.09 µM)

Question: And the MIC [6]?
Answer: 5 µg/mL (≈ 12.2 µM)

Question: What about the inhibition at 80 µg/mL (B. subtilis pol IIIE [7]; 80 μg/mL (190-260 μM) final concentration, all four dNTPs, read-out: Percent Enzymatic Inhibition B. subtilis pol IIIE) of the same compound?
Answer: > 20%

Question: And the IC50 (B. subtilis pol IIIE [7]; B. subtilis Pol IIIE IC50, 4 dNTPs, in the presence of all four dNTP substrates)?
Answer: > 780 µM

Source: US20060258729A1, “Antibacterial pyrazole carboxylic acid hydrazides” (priority 2002, published 2006)
